Measurements from PMC11528321 (RSC Medicinal Chemistry, 2024).
“Also recorded” adds a separate entry of the source.

Key:
[1] = tested on: OE33 and FLO-1 cells; test: Antiproliferative screening, both OC cell lines together; type: cell-based, human; details: for antiproliferative activity (in words): dose range 0.003-30 μM
[2] = target: RET (Homo sapiens, UniProt P07949); test: 33PanQinase kinome profiling; type: biochemical; details: mean, respect to DMSO control
[3] = target: T1, AuroraA (Homo sapiens, UniProt O14965); test: 33PanQinase kinome profiling; type: biochemical; details: mean, respect to DMSO control
T1 sequence (O14965 1-403): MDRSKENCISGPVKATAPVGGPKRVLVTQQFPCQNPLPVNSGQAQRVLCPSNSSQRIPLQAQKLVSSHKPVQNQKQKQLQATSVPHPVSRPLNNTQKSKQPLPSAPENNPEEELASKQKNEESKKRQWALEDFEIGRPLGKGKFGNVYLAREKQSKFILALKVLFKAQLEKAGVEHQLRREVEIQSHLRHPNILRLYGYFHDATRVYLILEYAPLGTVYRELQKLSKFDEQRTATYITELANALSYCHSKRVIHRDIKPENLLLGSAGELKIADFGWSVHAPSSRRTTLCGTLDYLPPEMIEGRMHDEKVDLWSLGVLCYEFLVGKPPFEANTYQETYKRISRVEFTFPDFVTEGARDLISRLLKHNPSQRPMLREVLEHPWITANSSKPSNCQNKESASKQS

[4] = target: T2, AXL (Homo sapiens, UniProt P30530); test: 33PanQinase kinome profiling; type: biochemical; details: 1 μM
T2 sequence (P30530 26-894): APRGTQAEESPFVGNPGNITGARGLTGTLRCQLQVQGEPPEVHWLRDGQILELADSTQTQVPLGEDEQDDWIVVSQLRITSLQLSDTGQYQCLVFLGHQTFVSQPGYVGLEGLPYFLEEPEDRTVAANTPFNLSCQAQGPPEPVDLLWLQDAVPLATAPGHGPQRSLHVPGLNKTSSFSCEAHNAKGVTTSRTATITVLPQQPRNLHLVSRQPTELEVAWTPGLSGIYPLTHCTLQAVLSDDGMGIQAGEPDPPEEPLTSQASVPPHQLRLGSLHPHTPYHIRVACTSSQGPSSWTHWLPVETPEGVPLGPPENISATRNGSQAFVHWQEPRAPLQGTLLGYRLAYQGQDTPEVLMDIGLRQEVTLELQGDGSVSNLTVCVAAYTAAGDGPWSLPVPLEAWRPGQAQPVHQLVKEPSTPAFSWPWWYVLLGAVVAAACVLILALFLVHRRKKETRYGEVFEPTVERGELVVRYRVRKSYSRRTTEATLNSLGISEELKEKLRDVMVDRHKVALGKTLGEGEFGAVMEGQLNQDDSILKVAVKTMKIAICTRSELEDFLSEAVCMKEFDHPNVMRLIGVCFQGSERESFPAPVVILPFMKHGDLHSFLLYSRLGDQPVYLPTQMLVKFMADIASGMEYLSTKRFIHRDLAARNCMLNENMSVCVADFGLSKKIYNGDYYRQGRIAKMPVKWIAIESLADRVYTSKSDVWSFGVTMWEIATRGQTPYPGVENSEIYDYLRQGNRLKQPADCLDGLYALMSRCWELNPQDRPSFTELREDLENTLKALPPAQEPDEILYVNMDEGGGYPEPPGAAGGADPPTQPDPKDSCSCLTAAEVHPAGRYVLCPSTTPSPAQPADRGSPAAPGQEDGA

[5] = tested on: FLO-1 cells; test: Cell cycle assay; type: cell-based, human; details: 3 μM, 72 h, vs DMSO control
[6] = target: T3, FLT3 (Homo sapiens, UniProt P36888); test: 33PanQinase kinome profiling; type: biochemical; details: mean, respect to DMSO control
T3 sequence (P36888 564-993 limits assumed): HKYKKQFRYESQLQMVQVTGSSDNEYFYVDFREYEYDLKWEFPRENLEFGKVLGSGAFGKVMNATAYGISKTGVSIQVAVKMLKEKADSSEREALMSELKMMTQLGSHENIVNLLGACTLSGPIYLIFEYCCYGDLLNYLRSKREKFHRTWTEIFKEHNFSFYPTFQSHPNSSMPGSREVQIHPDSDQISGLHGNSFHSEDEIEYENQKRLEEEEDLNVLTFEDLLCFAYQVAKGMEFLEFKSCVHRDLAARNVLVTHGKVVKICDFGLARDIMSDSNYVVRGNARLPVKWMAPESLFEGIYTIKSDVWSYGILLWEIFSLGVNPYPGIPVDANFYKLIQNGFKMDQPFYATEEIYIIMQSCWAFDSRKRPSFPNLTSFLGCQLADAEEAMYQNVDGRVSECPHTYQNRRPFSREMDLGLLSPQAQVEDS

[7] = tested on: OE33 cells; test: Cell cycle assay; type: cell-based, human; details: 3 μM, 72 h, vs DMSO control
[8] = target: T4, Nano-Luc-Aurora A (fusion vector) in HEK293 (Homo sapiens, UniProt O14965); test: NanoBRET target engagement assay; type: cell-based; details: HEK293, 1 h treatment, 0.001-100 µM
T4 sequence (O14965 1-403): T1 sequence (O14965 1-403)

Chain of RET (P07949 29-1114): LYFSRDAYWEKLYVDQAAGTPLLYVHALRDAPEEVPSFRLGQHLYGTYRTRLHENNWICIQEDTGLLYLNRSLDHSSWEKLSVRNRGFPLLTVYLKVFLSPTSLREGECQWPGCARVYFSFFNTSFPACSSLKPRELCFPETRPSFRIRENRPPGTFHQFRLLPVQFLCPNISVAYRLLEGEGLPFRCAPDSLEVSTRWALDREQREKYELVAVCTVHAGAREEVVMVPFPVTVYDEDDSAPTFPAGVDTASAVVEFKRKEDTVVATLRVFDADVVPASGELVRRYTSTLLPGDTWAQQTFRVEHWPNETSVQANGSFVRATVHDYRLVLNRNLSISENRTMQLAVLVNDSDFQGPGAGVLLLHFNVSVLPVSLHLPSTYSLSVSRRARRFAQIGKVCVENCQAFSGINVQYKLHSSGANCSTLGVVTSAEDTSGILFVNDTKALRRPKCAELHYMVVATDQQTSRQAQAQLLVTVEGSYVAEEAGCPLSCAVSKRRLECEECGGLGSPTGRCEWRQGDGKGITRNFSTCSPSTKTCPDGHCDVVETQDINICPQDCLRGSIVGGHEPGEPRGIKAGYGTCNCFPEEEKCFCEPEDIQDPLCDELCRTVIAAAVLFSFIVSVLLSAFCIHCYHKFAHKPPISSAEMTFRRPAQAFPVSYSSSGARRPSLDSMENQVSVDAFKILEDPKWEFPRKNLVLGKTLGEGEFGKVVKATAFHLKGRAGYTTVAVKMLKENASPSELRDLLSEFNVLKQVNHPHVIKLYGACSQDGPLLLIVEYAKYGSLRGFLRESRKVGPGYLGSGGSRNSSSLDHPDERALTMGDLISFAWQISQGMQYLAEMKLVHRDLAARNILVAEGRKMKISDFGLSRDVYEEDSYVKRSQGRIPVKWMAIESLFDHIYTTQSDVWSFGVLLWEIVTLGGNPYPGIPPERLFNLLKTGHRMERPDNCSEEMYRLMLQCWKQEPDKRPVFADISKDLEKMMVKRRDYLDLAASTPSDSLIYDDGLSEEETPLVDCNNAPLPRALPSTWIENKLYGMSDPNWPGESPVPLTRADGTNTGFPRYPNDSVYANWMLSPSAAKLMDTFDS

COC1CCN(C(=O)/C=C/c2nn(CC3CCCC3)c3ncnc(N)c23)CC1 [1A7]
antiproliferative activity (in words) [1]: completely inactive

CNc1ncc2c(/C=C/C(=O)N3CCC4(CC3)OCCO4)nn(Cc3cccc(C)c3)c2n1 [2C4]
fold increase in antiproliferative potency over 2B10 ([1]; compared with 2B10): 2 fold

CNc1ncc2c(/C=C/C(=O)N3CCC(OC)CC3)nn(Cc3cccc(C(F)(F)F)c3)c2n1 [2D7, (2E)-1-(4-Methoxypiperidin-1-yl)-3-[6-(methylamino)-1-{[3-(trifluoromethyl)phenyl]methyl}-1H-pyrazolo[3,4-d]pyrimidin-3-yl]prop-2-en-1-one]
% Inhibition [1uM] [2]: minimal to no inhibition
% Inhibition [1uM] [3]: > 50%
inhibition of AXL (in words) [4]: minimal to no inhibition
effect on the cell cycle (in words) [5]: enrichment of cells in the S and G2/M phases
% Inhibition [1uM] [6]: minimal to no inhibition
effect on the cell cycle (in words) [7]: rapid arrest of cells in the G2/M phase; also recorded: slight increase in the number of cells in the sub-G1 phase
AURKA target engagement in cells (in words) [8]: direct dose-dependent binding

Nc1ncnc2c1c(/C=C/C(=O)O)nn2CC1CCCC1 [compound 10]
antiproliferative activity (in words) [1]: lack of activity

CNc1ncc2c(/C=C/C(=O)O)nn(CC3CCCC3)c2n1 [compound 12]
antiproliferative activity (in words) [1]: lack of activity
